Data from ChEMBL document CHEMBL5143714, “Discovery of BMS-986339, a Pharmacologically Differentiated Farnesoid X Receptor Agonist for the Treatment of Nonalcoholic Steatohepatitis” (J Med Chem, 2022).

Legend:
[1] = Metabolic stability in rat liver microsome assessed as parent compound remaining at […] measured after 10 mins; type: ADME; settings: liver microsomes, read-out: Stability
Cytochrome P450 2C9 = Cytochrome P450 2C9 (Homo sapiens, UniProt P11712); test: Inhibition of recombinant CYP2C9 (unknown origin) using fluorogenic substrate preincubated for 15 min followed by NADPH addition measured after 2 hrs by fluorescence method; type: ADME
Chain of Cytochrome P450 2C9 (P11712 whole entry): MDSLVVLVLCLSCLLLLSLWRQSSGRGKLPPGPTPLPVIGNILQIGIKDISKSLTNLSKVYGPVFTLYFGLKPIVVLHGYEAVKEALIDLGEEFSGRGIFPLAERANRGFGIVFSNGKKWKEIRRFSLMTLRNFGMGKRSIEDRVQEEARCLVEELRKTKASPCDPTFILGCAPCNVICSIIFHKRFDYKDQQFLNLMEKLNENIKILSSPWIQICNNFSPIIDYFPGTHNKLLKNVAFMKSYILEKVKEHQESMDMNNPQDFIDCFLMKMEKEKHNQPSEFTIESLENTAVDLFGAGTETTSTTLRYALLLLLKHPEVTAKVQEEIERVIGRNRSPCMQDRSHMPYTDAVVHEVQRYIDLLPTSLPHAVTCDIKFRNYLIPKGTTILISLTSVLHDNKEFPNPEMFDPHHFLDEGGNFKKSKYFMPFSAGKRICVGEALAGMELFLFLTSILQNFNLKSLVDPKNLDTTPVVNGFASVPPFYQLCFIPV

[2] = Metabolic stability in human liver microsome assessed as parent compound remaining at […] measured after 10 mins; type: ADME; settings: liver microsomes, read-out: Stability
[3] = Metabolic stability in mouse liver microsome assessed as parent compound remaining at […] measured after 10 mins; type: ADME; settings: liver microsomes, read-out: Stability
[4] = target: T1, Nuclear receptor subfamily 1 group I member 2 (Homo sapiens, UniProt O75469); test: Transactivation of PXR (unknown origin); type: ADME
T1 sequence (O75469 whole entry): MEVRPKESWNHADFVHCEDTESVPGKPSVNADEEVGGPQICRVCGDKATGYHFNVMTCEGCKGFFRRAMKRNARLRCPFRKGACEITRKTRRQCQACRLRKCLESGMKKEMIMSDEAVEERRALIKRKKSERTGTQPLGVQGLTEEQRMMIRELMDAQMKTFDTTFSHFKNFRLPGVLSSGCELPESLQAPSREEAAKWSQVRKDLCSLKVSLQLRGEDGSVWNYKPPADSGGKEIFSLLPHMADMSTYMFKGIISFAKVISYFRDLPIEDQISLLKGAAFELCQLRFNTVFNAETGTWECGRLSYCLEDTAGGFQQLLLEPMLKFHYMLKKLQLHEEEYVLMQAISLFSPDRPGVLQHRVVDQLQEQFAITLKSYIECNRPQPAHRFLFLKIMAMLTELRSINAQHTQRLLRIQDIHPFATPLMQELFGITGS

Bile acid receptor = target: T2, Bile acid receptor (Homo sapiens, UniProt Q96RI1); test: Agonist activity at Gal4-fused human FXR in HEK293 cells incubated for 15 min by luciferase reporter assay; type: cell-based
T2 sequence (Q96RI1 whole entry): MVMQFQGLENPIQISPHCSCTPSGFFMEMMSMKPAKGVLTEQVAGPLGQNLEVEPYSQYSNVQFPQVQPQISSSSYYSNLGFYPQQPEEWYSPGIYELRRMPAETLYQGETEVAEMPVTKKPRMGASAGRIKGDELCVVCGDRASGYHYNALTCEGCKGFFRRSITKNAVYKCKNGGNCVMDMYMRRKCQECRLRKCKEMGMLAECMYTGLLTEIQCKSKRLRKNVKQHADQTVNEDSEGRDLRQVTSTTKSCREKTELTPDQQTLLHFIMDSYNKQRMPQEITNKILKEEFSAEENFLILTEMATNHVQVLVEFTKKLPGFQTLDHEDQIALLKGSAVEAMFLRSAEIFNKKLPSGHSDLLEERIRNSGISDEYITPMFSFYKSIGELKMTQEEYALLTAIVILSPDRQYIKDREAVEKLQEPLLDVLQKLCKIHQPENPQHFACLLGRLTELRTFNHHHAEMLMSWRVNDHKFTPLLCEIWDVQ

Cytochrome P450 2C19 = Cytochrome P450 2C19 (Homo sapiens, UniProt P33261); test: Inhibition of recombinant CYP2C19 (unknown origin) using fluorogenic substrate preincubated for 15 min followed by NADPH addition measured after 2 hrs by fluorescence method; type: ADME
Chain of Cytochrome P450 2C19 (P33261 whole entry): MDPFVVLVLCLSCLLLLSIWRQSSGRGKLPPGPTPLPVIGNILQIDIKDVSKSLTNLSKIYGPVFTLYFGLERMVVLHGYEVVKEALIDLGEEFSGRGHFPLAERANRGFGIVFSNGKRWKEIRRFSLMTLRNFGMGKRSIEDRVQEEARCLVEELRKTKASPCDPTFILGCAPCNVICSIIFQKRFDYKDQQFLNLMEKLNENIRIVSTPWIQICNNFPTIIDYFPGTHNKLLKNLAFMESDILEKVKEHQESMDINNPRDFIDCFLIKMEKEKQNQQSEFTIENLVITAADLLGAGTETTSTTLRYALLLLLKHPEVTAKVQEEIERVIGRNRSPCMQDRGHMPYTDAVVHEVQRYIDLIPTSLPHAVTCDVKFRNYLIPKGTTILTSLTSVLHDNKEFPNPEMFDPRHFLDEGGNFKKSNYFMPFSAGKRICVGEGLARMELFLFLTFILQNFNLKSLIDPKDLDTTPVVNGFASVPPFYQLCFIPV

[5] = target: T1, Nuclear receptor subfamily 1 group I member 2; test: Transactivation of PXR (unknown origin) relative to refampicin; type: ADME
[6] = Metabolic stability in mouse liver microsome assessed as parent compound remaining at 1 mg/mL measured after 10 mins; type: ADME; settings: liver microsomes, read-out: Stability
[7] = Metabolic stability in rat liver microsome assessed as parent compound remaining at 1 mg/mL measured after 10 mins; type: ADME; settings: liver microsomes, read-out: Stability
[8] = Metabolic stability in human liver microsome assessed as parent compound remaining at 1 mg/mL measured after 10 mins; type: ADME; settings: liver microsomes, read-out: Stability

remaining at 10 min [1] | IC50 (Cytochrome P450 2C9) | remaining at 10 min [2] | remaining at 10 min [3] | EC50 [4] | EC50 (Bile acid receptor) | IC50 (Cytochrome P450 2C19) | Emax [5] | remaining at 10 min [6] | remaining at 10 min, 1 mg/mL [7] | remaining at 10 min [8] | Compound
100% | 5000 nM | 100% | 99% | 50 µM | 25 nM | 9 µM | 13% |  |  |  | CC(C)(O)c1ccc(-c2cccc(N(CC34CCC(c5noc(C(C)(C)F)n5)(CC3)CC4)C(=O)[C@H]3C[C@@](C)(O)C3)c2)cc1
4% | 20000 nM | 38% | 34% | 6 µM | 44 nM | 20 µM | 21% |  |  |  | O=C(C1CCCCC1)N(CC12CCC(c3nc(C4CC4)no3)(CC1)CC2)c1cccc(-c2nc(C3CC3)no2)c1
44% | 1000 nM | 64% | 84% | 1.5 µM |  | 9 µM | 37% |  |  |  | CCOc1ncc(-c2cccc(N(CC34CCC(c5noc(C(C)(C)C)n5)(CC3)CC4)C(=O)[C@H]3C[C@@](C)(O)C3)c2)cn1
 |  |  |  |  | 57 nM |  |  | 4% | 31% | 6% | COC(=O)/C=C/c1cccc(N(CC23CCC(c4nc(C)no4)(CC2)CC3)C(=O)C2CCCCC2)c1
81% | 3000 nM | 97% | 92% | 50 µM | 29 nM | 9 µM | 19% |  |  |  | CC(C)(C)c1nc(C23CCC(CN(C(=O)C45CC(F)(C4)C5)c4cccc(-c5nc(C6CC6)no5)c4)(CC2)CC3)no1
99% | 2000 nM | 100% | 100% | 1 µM |  | 2 µM | 25% |  |  |  | O=C(N(CC12CCC(c3nc(C4CC4)no3)(CC1)CC2)c1cccc(-c2nc(C3CC3)no2)c1)C12CC(F)(C1)C2
60% |  | 76% | 52% |  | 45 nM | 1 µM |  |  |  |  | CC(C)(C)c1nc(C23CCC(CN(C(=O)C45CC(F)(C4)C5)c4cccc(-c5nnc(C6CC6)o5)c4)(CC2)CC3)no1
 |  |  |  |  | 111 nM |  |  |  |  |  | COC(=O)/C=C/c1cccc(N(CC23CCC(c4ccc(C5CC5)cc4)(CC2)CC3)C(=O)C2CCCCC2)c1
23% | 20000 nM | 100% | 82% | 8 µM | 149 nM | 0.3 µM | 35% |  |  |  | O=C(C1CCC(F)(F)CC1)N(CC12CCC(c3nc(C4CC4)no3)(CC1)CC2)c1cccc(-c2nc(C3CC3)no2)c1
 |  |  |  |  | 299 nM |  |  |  |  |  | COC(=O)/C=C/c1cccc(N(CC23CCC(c4ccc(N5CCCC5)cc4)(CC2)CC3)C(=O)C2CCCCC2)c1
 |  |  |  |  | 919 nM |  |  |  |  |  | CCOC(=O)c1nc(-c2cccc(N(CC34CCC(c5nc(C6CC6)no5)(CC3)CC4)C(=O)C3CCCCC3)c2)cs1
0% | 1000 nM | 86% | 8% |  | 114 nM | 20 µM |  |  |  |  | O=C(C1CCOCC1)N(CC12CCC(c3nc(C4CC4)no3)(CC1)CC2)c1cccc(-c2nc(C3CC3)no2)c1
73% | 1000 nM | 69% | 86% | 50 µM | 152 nM | 10 µM | 10% |  |  |  | CCOc1ncc(-c2cccc(N(CC34CCC(c5noc(C(C)(C)C)n5)(CC3)CC4)C(=O)[C@H]3C[C@](O)(C(F)(F)F)C3)c2)cn1
37% | 20000 nM | 98% | 71% | 50 µM | 1640 nM | 13 µM | 11% |  |  |  | CN1CCC(C(=O)N(CC23CCC(c4nc(C5CC5)no4)(CC2)CC3)c2cccc(-c3nc(C4CC4)no3)c2)CC1
 |  |  |  |  | 59 nM |  |  |  |  |  | CCOc1cc(-c2cccc(N(CC34CCC(c5nc(C6CC6)no5)(CC3)CC4)C(=O)C3CCCCC3)c2)no1
80% | 1000 nM | 100% | 77% | 50 µM | 41 nM | 6 µM | 9% |  |  |  | CCOc1ncc(-c2cccc(N(CC34CCC(c5noc(C(C)(C)C)n5)(CC3)CC4)C(=O)C34CC(F)(C3)C4)c2)cn1
86% | 20000 nM | 100% | 100% | 50 µM | 70 nM | 20 µM | 11% |  |  |  | CC(C)(C)c1noc(C23CCC(CN(C(=O)C45CC(F)(C4)C5)c4cccc(-c5nc(C6CC6)no5)c4)(CC2)CC3)n1
72% | 1000 nM | 98% | 100% | 1 µM |  | 17 µM | 62% |  |  |  | O=C(C1CC(F)(F)C1)N(CC12CCC(c3nc(C4CC4)no3)(CC1)CC2)c1cccc(-c2nc(C3CC3)no2)c1
 |  |  |  |  | 118 nM |  |  |  |  |  | COC(=O)/C=C/c1cccc(N(CC23CCC(c4ccc(N5CCOCC5)cc4)(CC2)CC3)C(=O)C2CCCCC2)c1
 |  |  |  |  | 142 nM |  |  | 35% | 8% | 60% | COC(=O)/C=C/c1cccc(N(CC23CCC(c4ccc(OC)cc4)(CC2)CC3)C(=O)C2CCCCC2)c1
79% | 2000 nM | 94% | 58% | 50 µM |  | 8 µM | 9% |  |  |  | CCOc1ccc(-c2cccc(N(CC34CCC(c5noc(C(C)(C)C)n5)(CC3)CC4)C(=O)C34CC(F)(C3)C4)c2)cn1
 |  |  |  |  | 95 nM |  |  |  |  |  | COc1cc(-c2cccc(N(CC34CCC(c5nc(C6CC6)no5)(CC3)CC4)C(=O)C3CCCCC3)c2)ccn1
 |  |  |  |  | 92 nM |  |  |  |  |  | COc1cccc(-c2cccc(N(CC34CCC(c5nc(C6CC6)no5)(CC3)CC4)C(=O)C3CCCCC3)c2)c1
64% | 2000 nM | 88% | 84% | 2 µM | 170 nM | 7 µM | 28% |  |  |  | CCOc1ncc(-c2cccc(N(CC34CCC(c5noc(C(F)F)n5)(CC3)CC4)C(=O)C34CC(F)(C3)C4)c2)cn1
10% | 8000 nM | 100% | 100% | 4 µM | 1090 nM | 8 µM | 48% |  |  |  | O=C(C1CCS(=O)(=O)CC1)N(CC12CCC(c3nc(C4CC4)no3)(CC1)CC2)c1cccc(-c2nc(C3CC3)no2)c1
